For data set [1] the following is noted: 101.33 kPa, Crystal, radial heat flow.
Data set [2] in a line: xn = mol fraction of the nth substance listed. The following applies: 101 kPa, radial heat flow.

Structures are written as SMILES. Numbers after ± are expanded uncertainties.

`[Bi]` [bismuth]: the figures for the thermal conductivity in data set [1] (382.65 K) and in data set [1] (418.7 K) were 8.35 ± 1.2 W/m/K and 8.12 ± 1.1 W/m/K, respectively.

`[Cd]` [cadmium] + [Bi]: the thermal conductivity in data set [2] (418.7 K, Crystal, x2 = 0.5504) is given as 12.46 ± 1.7 W/m/K; in data set [2] (418.7 K, Liquid, x2 = 0.5504) it was 10.06 ± 1.4 W/m/K.

For `[In]` [indium] + [Bi], the thermal conductivity was 13.25 ± 1.9 W/m/K in data set [2] (382.65 K, Crystal, x2 = 0.527) and 10.6 ± 1.5 W/m/K in data set [2] (382.65 K, Liquid, x2 = 0.527).

Values taken from the NIST ThermoML archive (doi:10.1016/j.fluid.2010.02.029).
